From patent US6387893B1, “Spirotricyclic substituted azacycloalkane derivatives and uses thereof” (Merck & Co., Inc., priority 1999, dated 2002)
Structures can show the parent of a compound that is named as a salt.

What was measured:
[1] = target: T1, human alpha 1a adrenergic receptor (Homo sapiens, UniProt P35348); test: Screening assay: alpha 1a adrenergic receptor binding ([125I]-HEAT competition); conditions: membranes from stably transfected human alpha 1a cell line (ATCC CRL 11140), 100 pM [125I]-HEAT
T1 sequence (P35348 1-466): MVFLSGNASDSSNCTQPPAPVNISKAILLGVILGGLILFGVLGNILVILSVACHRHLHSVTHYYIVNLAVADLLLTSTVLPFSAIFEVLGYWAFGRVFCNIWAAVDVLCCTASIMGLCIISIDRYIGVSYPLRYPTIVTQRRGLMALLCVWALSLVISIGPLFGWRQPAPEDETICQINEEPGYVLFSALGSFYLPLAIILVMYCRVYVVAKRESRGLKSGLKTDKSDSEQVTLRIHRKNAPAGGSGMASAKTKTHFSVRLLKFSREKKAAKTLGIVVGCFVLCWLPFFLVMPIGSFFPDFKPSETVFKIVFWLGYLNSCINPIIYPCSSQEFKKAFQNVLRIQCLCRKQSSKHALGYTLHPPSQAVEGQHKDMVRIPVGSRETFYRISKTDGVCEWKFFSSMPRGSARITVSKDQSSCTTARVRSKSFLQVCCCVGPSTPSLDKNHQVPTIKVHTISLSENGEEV
Protocol: Screening Assay: Alpha 1a Adrenergic Receptor Binding
Membranes prepared from the stably transfected human alpha 1a cell line (ATCC CRL 11140) were used to identify compounds that bind to the human alpha 1a adrenergic receptor. These competition binding reactions (total volume=200 μl) contained 50 mM Tris-HCl pH. 7.4, 5 mM EDTA, 150 mM NaCl, 100 pM [^125I]-HEAT, membranes prepared from the alpha 1a cell line and increasing amounts of unlabeled ligand. Reactions were incubated at room temperature for one hour with shaking. Reactions were filtered onto Whatman GF/C glass fiber filters with a Inotec 96 well cell harvester. Filters were washed three times with ice cold buffer and bound radioactivity was determined (Ki).

Ki [1] [µM] | melting point [°C] | Structure (SMILES)
< 0.02 | 138 to 139 | O=C(NCCCN1CCC2(CC1)c1ccccc1Oc1ccccc12)N1C(=O)OC[C@@H]1c1ccc(F)c(F)c1 [Example 35, 1′-{3-[(4S)-(3,4-Difluorophenyl)-2-oxooxazolidin-3-carbonylamino]propyl}spiroxanthene-9,4′-piperidine]
 | 185 to 196 | COCC1=C(C(=O)OC)[C@H](c2ccc(F)c(F)c2)N(C(=O)NCCCN2CCC3(CC2)c2ccccc2[S+]([O-])c2ccccc23)C(=O)N1 (as salt: HCl) [Example 27, 1,2,3,6-tetrahydro-1-[(10-oxo-spirothioxanthene-9,4′-piperidin-1′-yl)propyl]aminocarbonyl-5-methoxycarbonyl-4-methoxymethyl-6(S)-(3,4-difluorophenyl)-2-oxopyrimidine]
 | 201 to 209 | COCC1=C(C(=O)OC)[C@H](c2ccc(F)c(F)c2)N(C(=O)NCCCN2CCC3(CC2)c2ccccc2-c2cccnc23)C(=O)N1 (as salt: hydrochloride) [Example 53, 1,2,3,6-tetrahydro-1-[3-((spiro(9H-indeno[2,1-b]pyridine)-9,4′-piperidin)-1′-yl)propylaminocarbonyl]-5-methoxycarbonyl-4-methoxymethyl-6(S)-(3,4-difluorophenyl)-2-oxopyrimidine]
